Test results: patent US7888331B2, “Ganglioside compositions and methods of use” (Seneb Biosciences, Inc., priority 2003, dated 2011)

Tested on: mouse cortical cells
Experiment: Protection of cortical cells from apoptosis (hydrogen peroxide, MTT)
Format: cell-based
Conditions: approx. 0.1 μM, 50 μM hydrogen peroxide
Method: To induce apoptosis, mouse cortical cells were cultured and treated with 50 μM hydrogen peroxide for three hours prior to being treated with the ganglioside analogue. The cells were also treated with the hydrogen peroxide during treatment with the ganglioside analogue and post-treatment for 48 h. Cell death was assayed using the MTT assay.

LIGA-20
protection of the cells from apoptosis: approximately 20%
